# Measurements as given in paper PMC9232501, “Results of the phase I CCTG IND.231 trial of CX-5461 in patients with advanced solid tumors enriched for DNA-repair deficiencies” (Nature Communications, 2022).
# Several values for one entry are separate records, joined by “and”; a condition that tells them apart may be missing. Equal entries are not always repeated. Entries after “also recorded” stand apart in the source; their conditions may differ.
# Columns and labels:
# G-quadruplex (G4) DNA = tested on: G-quadruplex (G4) DNA; set-up: method as in PMID 28211448; settings: in vitro and in vivo; cited from earlier work
# [1] = tested on: γ-H2AX (double-stranded DNA breaks); test: γ-H2AX immunofluorescent staining with and without UVA radiation; format: cell-based; settings: CX5461 10^-8M, 5x10-8M; PDS 20 x 10^-6M
# Protocol: (§1) Human epidermal keratinocytes (HEKa) cells were sourced from Thermo Fisher Scientific, and were grown in EpiLife™ Medium with HKGS. HAP WT and XPA knockout cell lines (Horizon Discovery) were cultured in IMDM, 10% FCS. Human HCT116 cells, U2OS cells (ATCC) were grown in McCoy’s 5 A medium with 10% FBS and L-glutamine. All cell lines are mycoplasma free and have been authenticated by STR or SNP profiling. CX-5461 was provided by Senhwa Biosciences, Inc. PDS is from Sigma-Aldrich, BRACO-19 from Alfa Chemistry, PhENDC3 is from Sigma-Aldrich, γ -H2AX antibody from Abcam (1:1000 for IF) and CPD antibody (1:1500) from Cosmo Bio Ltd. (Catalog number: CAC-NM-DAD-001). The WST-1 assay was performed as previously described, γ H2AX foci staining was performed as previously described. Immunofluorescence staining of CPD was performed according to the protocol from the manufacturer (Cosmo Bio Ltd).
# Supplementary Figures and Tables
# Supplementary Figure 1. UVA radiation increased double-stranded DNA breaks and ROS.
# Representative pictures of g -H2AX immunofluorescent staining with and without UVA radiation, for […]
# condition, quantified in (b) Quantile and mean intensity of g-H2AX level per cell, vertical axis. UV and drug factor conditions, horizontal axis. […] Number of cells as in Figure 5 g (c) The ratio of ROS level measured after UVA irradiation versus before UVA irradiation was calculated. […]
# U2OS cells = test: CPD (cyclobutane pyrimidine dimer) immunofluorescence after UVA 125 mJ/cm^2; format: cell-based, Human; settings: 1 h compound exposure
# Protocol: (§2) Fig. 5 Comparison of G4 ligand photosensitization. […] Vertical axis, fractional survival, horizontal axis log10 drug concentration (M) (f) Representative images of CPD immunofluorescent staining under UV and drug treatment conditions for U2OS cells, quantified from biological duplicates in (g) (h) Scale bar = 100um. U2OS cells were treated with drug or vehicle control, then immediately irradiated with UVA 125 mJ/cm^2; and fixed 1 h later for immunofluorescence staining with CPD antibody. g Distribution of mean intensity of CPD level per cell (total n = in labels), with two biological repeats per condition. Vertical axis, mean CPD intensity per cell, horizontal axis, conditions (h) WT or KO XPA HAP1 cells assayed for cytotoxicity. Vertical axis, fractional survival (WST-1 assay). The horizontal axis, log10 drug concentration (M). Error bars = standard deviation of the mean. Three biological repeats per condition.
# Human epidermal keratinocytes (HEKa) cells were sourced from Thermo Fisher Scientific, and were grown in EpiLife™ Medium with HKGS. HAP WT and XPA knockout cell lines (Horizon Discovery) were cultured in IMDM, 10% FCS. Human HCT116 cells, U2OS cells (ATCC) were grown in McCoy’s 5 A medium with 10% FBS and L-glutamine. All cell lines are mycoplasma free and have been authenticated by STR or SNP profiling. […]
# advanced solid tumors = test: Efficacy assessment by RECIST 1.1 (best response, ORR, DCR, duration of response); format: in vivo, human; set-up: partial_response_date (time at which PR was documented) / bestchange (best change of target lesions, Figure 3): unit not given here; settings: for bestchange (best change of target lesions, Figure 3): one value per patient; for time_on_study: individual patients
# Protocol: Computed tomography of chest, abdomen, and pelvis was performed at baseline and every 8 weeks and as clinically indicated. All patients who had at least one post-baseline scan were included in efficacy analyses; patients with the non-target disease only were assessed for non-CR/non-PD and PD. Patients were evaluated for CR, PR, SD, or PD as defined by RECIST 1.1[23]. The objective response rate (ORR = CR+PR) and disease control rate (DCR = CR + PR + SD ≥ 6 months) are reported. Duration of response was defined as the time from when CR or PR was first documented until the first date that progressive disease was objectively documented or the time of the last disease assessment.
# WT HAP1 cells = test: HAP1 WT cytotoxicity (WST-1 assay) with and without UVA; format: cell-based; settings: for WST-1 raw signal (Figure 5h): replicates
# Protocol: as §2, §1
# [2] = BRCA1/2, PALB2 or TP53 germline or somatic mutations
# [3] = BRCA1/2 or PALB2 germline or somatic mutations
# [4] = dose_level 2, Breast, patient 400006
# [5] = dose_level 4, Ovarian, patient 400035
# [6] = dose_level 8, Breast, patient 400012
# [7] = dose_level 9, Breast, patient 400030
structure (smiles),measurement,setting,value
Cc1cnc(CNC(=O)c2c(=O)c3ccc(N4CCCN(C)CC4)nc3n3c2sc2ccccc23)cn1 [CX-5461],G4 binding and stabilization,G-quadruplex (G4) DNA,potent G4 binder and stabilizer
same,DNA damage (γ-H2AX) in the presence of UVA,[1],synergistically increased; also recorded: markedly increased
same,potentiation of CPD formation by UVA,U2OS cells,strong potentiation
same,patients with confirmed PR,"advanced solid tumors; 3 breast, 1 ovarian, all with germline DNA-repair abnormalities",Four
same,overall DCR (CR + PR + SD ≥ 6 months),"advanced solid tumors; 8/40, 95% CI: 9.1–35.7%",20%
same,"Best Response Complete Response (CR), N patients",advanced solid tumors; All treated patients N=40,0
same,"Best Response Partial Response (PR), N patients",advanced solid tumors; All treated patients N=40,4
same,"Best Response Progressive Disease (PD), N patients",advanced solid tumors; All treated patients N=40,21
same,"Best Response Stable Disease (SD), N patients",advanced solid tumors; All treated patients N=40,11
same,"Response Duration Median (range), SD","advanced solid tumors; All treated patients N=40, range 2.3-10.9",3.6 Mo.
same,"Response Duration Median (range), PR","advanced solid tumors; All treated patients N=40, range 5.5-8.2",6.5 Mo.
same,"Best Response Partial Response (PR), N patients",advanced solid tumors; [2],4
same,"Best Response Progressive Disease (PD), N patients",advanced solid tumors; [2],15
same,"Best Response Stable Disease (SD), N patients",advanced solid tumors; [2],7
same,"Response Duration Median (range), PR",advanced solid tumors; [2],6.5 (5.5-8.2) Mo.
same,"Response Duration Median (range), SD",advanced solid tumors; [2],3.5 (3-9.2) Mo.
same,"Best Response Partial Response (PR), N patients",advanced solid tumors; [3],3
same,"Best Response Progressive Disease (PD), N patients",advanced solid tumors; [3],12
same,"Best Response Stable Disease (SD), N patients",advanced solid tumors; [3],7
same,"Response Duration Median (range), PR",advanced solid tumors; [3],6.3 (5.5-6.8) Mo.
same,"Response Duration Median (range), SD",advanced solid tumors; [3],3.5 (3-9.2) Mo.
same,"bestchange (best change of target lesions, Figure 3)",advanced solid tumors; DOSE_LEV 0,27.9 and 20.3 and 4.4
same,"bestchange (best change of target lesions, Figure 3)",advanced solid tumors; DOSE_LEV 1,13.1 and 6 and 1.4 and -27.5
same,"bestchange (best change of target lesions, Figure 3)",advanced solid tumors; DOSE_LEV 2,-66.7 and 51.2 and 47.1
same,"bestchange (best change of target lesions, Figure 3)",advanced solid tumors; DOSE_LEV 3,18.9 and 4 and 74.8
same,"bestchange (best change of target lesions, Figure 3)",advanced solid tumors; DOSE_LEV 4,-43.4 and 50.8 and 41.7
same,"bestchange (best change of target lesions, Figure 3)",advanced solid tumors; DOSE_LEV 5,17.1 and 6.4
same,"bestchange (best change of target lesions, Figure 3)",advanced solid tumors; DOSE_LEV 6,-12.9 and -19.4 and 54
same,"bestchange (best change of target lesions, Figure 3)",advanced solid tumors; DOSE_LEV 7,36.2 and 20.5 and 9.7
same,"bestchange (best change of target lesions, Figure 3)",advanced solid tumors; DOSE_LEV 8,23.1 and 10.8 and 5.6 and 0 and -62.5 and 46.6
same,"bestchange (best change of target lesions, Figure 3)",advanced solid tumors; DOSE_LEV 9,7.7 and -50
same,"Best Response Progressive Disease (PD), N patients",advanced solid tumors; Prior PARP Inhibitor N=8,6
same,"Best Response Stable Disease (SD), N patients",advanced solid tumors; Prior PARP Inhibitor N=8,1
same,"Best Response Partial Response (PR), N patients",advanced solid tumors; Prior Platinum N=32,2
same,"Best Response Progressive Disease (PD), N patients",advanced solid tumors; Prior Platinum N=32,18
same,"Best Response Stable Disease (SD), N patients",advanced solid tumors; Prior Platinum N=32,8
same,"Responses observed, share of patients","advanced solid tumors; abstract, primarily in patients with defective homologous recombination",14%
same,ORR,"advanced solid tumors; all treated, 4/40, 95% CI: 2.8–23.7",10%
same,ORR,"advanced solid tumors; breast, ovarian, pancreas tumor types, 4/29, 95% CI: 3.9–31.7%",14%
same,time_on_study,advanced solid tumors; dose_level 0 (50 mg/m^2 Day 1 & 8),4.5667 months and 3.9425 months and 2.037 months and 1.8398 months
same,time_on_study,advanced solid tumors; dose_level 1 (100 mg/m^2 Day 1 & 8),1.1499 months and 5.5195 months and 3.2526 months
same,time_on_study,advanced solid tumors; dose_level 2 (150 mg/m^2 Day 1 & 8),10.4476 months and 1.1828 months and 0.7228 months and 0.6899 months
same,partial_response_date (time at which PR was documented),advanced solid tumors; [4],1.643
same,partial_response_duration,advanced solid tumors; [4],6.275 months
same,time_on_study,advanced solid tumors; dose_level 3 (200 mg/m^2 Day 1 & 8),7.3265 months and 1.1828 months and 0.6899 months and 0.46 months
same,time_on_study,advanced solid tumors; dose_level 4 (250 mg/m^2 Day 1 & 8),14.7187 months and 1.8398 months and 1.807 months
same,partial_response_date (time at which PR was documented),advanced solid tumors; [5],6.407
same,partial_response_duration,advanced solid tumors; [5],8.246 months
same,time_on_study,advanced solid tumors; dose_level 5 (325 mg/m^2 Day 1 & 8),1.2485 months and 1.1828 months and 1.0185 months
same,time_on_study,advanced solid tumors; dose_level 6 (475 mg/m^2 Day 1 & 8),11.039 months and 3.8768 months and 1.8398 months
same,time_on_study,"advanced solid tumors; dose_level 7 (325 mg/m^2 Day 1, 8 & 15)",1.8398 months and 1.807 months and 0.8871 months
same,time_on_study,"advanced solid tumors; dose_level 8 (475 mg/m^2 Day 1, 8 & 15)",10.809 months and 7.3922 months and 2.1355 months and 2.0698 months and 0.9199 months
same,partial_response_date (time at which PR was documented),advanced solid tumors; [6],3.45
same,partial_response_duration,advanced solid tumors; [6],6.801 months
same,time_on_study,"advanced solid tumors; dose_level 9 (650 mg/m^2 Day 1, 8 & 15)",7.8193 months and 2.9897 months and 1.6099 months and 1.577 months and 1.0185 months
same,partial_response_date (time at which PR was documented),advanced solid tumors; [7],1.708
same,partial_response_duration,advanced solid tumors; [7],5.487 months
same,objective responses in patients who had received prior platinum,advanced solid tumors; in vivo,2/32
same,patients with durable SD (≥6 months),advanced solid tumors; of 11 SD,4
same,"Objective response (all PR), patients","advanced solid tumors; of 32 evaluable patients, best response in target lesions",4
same,shrinkage in target lesions,"advanced solid tumors; one patient, gBRCA2-related pancreatic cancer, best response SD",13%
same,best response,"advanced solid tumors; one patient, metastatic breast cancer, germline PALB2 frameshift mutation",confirmed PR
same,WST-1 raw signal (Figure 5h),"WT HAP1 cells; conc 1.00E-07, 125 mJ/cm2 WT",0.124 and 0.1238
same,WST-1 raw signal (Figure 5h),"WT HAP1 cells; conc 1.00E-07, WT No UV",0.1248 and 0.1255
same,WST-1 raw signal (Figure 5h),"WT HAP1 cells; conc 1.25E-08, 125 mJ/cm2 WT",0.124 and 0.1239
same,WST-1 raw signal (Figure 5h),"WT HAP1 cells; conc 1.25E-08, WT No UV",2.9461 and 2.8715
same,WST-1 raw signal (Figure 5h),"WT HAP1 cells; conc 1.56E-09, 125 mJ/cm2 WT",1.6148 and 1.5014
same,WST-1 raw signal (Figure 5h),"WT HAP1 cells; conc 1.56E-09, WT No UV",3.4383 and 3.4235
same,WST-1 raw signal (Figure 5h),"WT HAP1 cells; conc 2.00E-07, 125 mJ/cm2 WT",0.1302 and 0.1263
same,WST-1 raw signal (Figure 5h),"WT HAP1 cells; conc 2.00E-07, WT No UV",0.1284 and 0.1271
same,WST-1 raw signal (Figure 5h),"WT HAP1 cells; conc 2.50E-08, 125 mJ/cm2 WT",0.1237 and 0.1243
same,WST-1 raw signal (Figure 5h),"WT HAP1 cells; conc 2.50E-08, WT No UV",0.7915 and 0.7888
same,WST-1 raw signal (Figure 5h),"WT HAP1 cells; conc 3.13E-09, 125 mJ/cm2 WT",0.139 and 0.1466
same,WST-1 raw signal (Figure 5h),"WT HAP1 cells; conc 3.13E-09, WT No UV",3.3417 and 3.4651
same,WST-1 raw signal (Figure 5h),"WT HAP1 cells; conc 3.91E-10, 125 mJ/cm2 WT",3.3908 and 3.3132
same,WST-1 raw signal (Figure 5h),"WT HAP1 cells; conc 3.91E-10, WT No UV",3.3655 and 3.4278
same,WST-1 raw signal (Figure 5h),"WT HAP1 cells; conc 5.00E-08, 125 mJ/cm2 WT",0.1258 and 0.124
same,WST-1 raw signal (Figure 5h),"WT HAP1 cells; conc 5.00E-08, WT No UV",0.1245 and 0.1268
same,WST-1 raw signal (Figure 5h),"WT HAP1 cells; conc 6.25E-09, 125 mJ/cm2 WT",0.1242 and 0.126
same,WST-1 raw signal (Figure 5h),"WT HAP1 cells; conc 6.25E-09, WT No UV",3.3238 and 3.2658
same,WST-1 raw signal (Figure 5h),"WT HAP1 cells; conc 7.81E-10, 125 mJ/cm2 WT",3.145 and 2.7907
same,WST-1 raw signal (Figure 5h),"WT HAP1 cells; conc 7.81E-10, WT No UV",3.4055 and 3.3833
same,effect of UVA radiation on cytotoxicity,WT HAP1 cells; with UVA,dramatically increased the cytotoxicity
